Columns and labels:
Lactobacillus brevis = test: Bacterial inhibition test; format: cell-based; parameters: key to bacterial growth in inhibition test: successful test corresponding to no growth is represented as (=); barely discernable growth is represented as (±); easily noticeable bacterial growth is represented as (+)
Source text: (§1) To directly measure the efficacy of Penicillin G Procaine and Penicillin G Potassium a bacterial inhibition test was designed using industrial isolates and chosen ATCC strains. The inhibition testing was spread over 0.1 ppm to 5.0 ppm for the Lactobacillus fermentum and 1.0 ppm to 5.0 ppm for Lactobacillus brevis species of bacteria due to the lack of response of Lactobacillus brevis at lower concentrations. […] The strains used were two isolates of Lactobacillus fermentum and 2 isolates of Lactobacillus brevis. The Lactobacillus fermentum series contained both an industry derived isolate Ind 1 and an ATCC strain while the Lactobacillus brevis series comprised of two isolates, Ind 1 and Ind 43 derived from the ethanol plants. The inhibition test plates were set in triplicate and read at 12 hour intervals up to 48 hours of test endpoint. The results below represent the mode average of the outcome from the triplicate inhibitory test sets for each trial. Table 11 lists the Lactobacillus fermentum and the Lactobacillus brevis results of the inhibition testing as follows: successful test corresponding to no growth is represented as (=), barely discernable growth is represented as (±) and easily noticeable bacterial growth is represented as (+). The set of control tests depict (=) control as just broth and (+) control as just broth with bacteria but without any antibiotic.
(§2) The trial was set up as follows:
(§3) • 1. Weigh out 0.1 g of each sample to be tested into a 15 ml centrifuge tube. • 2. Dissolve sample into 10 ml sterile water. […] Add antibiotic to clean tube, add 2 ml water. • b. Vortex, if antibiotic goes into solution add water for final volume of 10 ml. • c. […] Vortex until all material is in solution. • 3. Vortex the solutions to make sure that they are well mixed. • 4. Filter the solutions through a 0.2 μm syringe filter into a second labeled sterile centrifuge tube. • 5. Add antibiotic solution to MRS Broth for a final volume of 10 ml at the test concentration for each antibiotic. • 6. Mix organism solutions and add 2 μl to each of 3 wells of a 24 well plate. If tubes are used add the 2 μl to each of three tubes for each antibiotic. • 7. Transfer 1 ml of the antibiotic-broth solution to each well containing bacteria. • 8. Recap remaining antibiotic solution and return the tube to the tube rack. This tube will become the negative control for each dilution created. • 9. Add four μl of each bacterial culture to another set of wells and add […] of broth without antibiotics. These wells will be the positive controls. • 10. Incubate plates and tubes at 33 C for 48 hours, examining all samples at 24 hours for growth. Any turbidity detected should be a result of bacterial growth.

Lactobacillus fermentum = test: Bacterial inhibition test; format: cell-based; parameters: key: successful test corresponding to no growth is represented as (=); barely discernable growth is represented as (±); easily noticeable bacterial growth is represented as (+)
Source text: as §1, §2, §3

SMILES: CC1(C)S[C@@H]2[C@H](NC(=O)Cc3ccccc3)C(=O)N2[C@H]1C(=O)[O-].[K+] [Penicillin G Potassium]
- bacterial growth in inhibition test (Lactobacillus brevis; Ind 1 L. brevis, 1 ppm, Inc Time 12): ±
- bacterial growth in inhibition test (Lactobacillus brevis; Ind 1 L. brevis, 1 ppm, Inc Time 24): +
- bacterial growth in inhibition test (Lactobacillus brevis; Ind 1 L. brevis, 1 ppm, Inc Time 36): +
- bacterial growth in inhibition test (Lactobacillus brevis; Ind 1 L. brevis, 1 ppm, Inc Time 48): +
- bacterial growth in inhibition test (Lactobacillus brevis; Ind 1 L. brevis, 2 ppm, Inc Time 12): ±
- bacterial growth in inhibition test (Lactobacillus brevis; Ind 1 L. brevis, 2 ppm, Inc Time 24): +
- bacterial growth in inhibition test (Lactobacillus brevis; Ind 1 L. brevis, 2 ppm, Inc Time 36): +
- bacterial growth in inhibition test (Lactobacillus brevis; Ind 1 L. brevis, 2 ppm, Inc Time 48): +
- bacterial growth in inhibition test (Lactobacillus brevis; Ind 1 L. brevis, 3 ppm, Inc Time 12): ±
- bacterial growth in inhibition test (Lactobacillus brevis; Ind 1 L. brevis, 3 ppm, Inc Time 24): +
- bacterial growth in inhibition test (Lactobacillus brevis; Ind 1 L. brevis, 3 ppm, Inc Time 36): +
- bacterial growth in inhibition test (Lactobacillus brevis; Ind 1 L. brevis, 3 ppm, Inc Time 48): +
- bacterial growth in inhibition test (Lactobacillus brevis; Ind 1 L. brevis, 4 ppm, Inc Time 12): ±
- bacterial growth in inhibition test (Lactobacillus brevis; Ind 1 L. brevis, 4 ppm, Inc Time 24): +
- bacterial growth in inhibition test (Lactobacillus brevis; Ind 1 L. brevis, 4 ppm, Inc Time 36): +
- bacterial growth in inhibition test (Lactobacillus brevis; Ind 1 L. brevis, 4 ppm, Inc Time 48): +
- bacterial growth in inhibition test (Lactobacillus brevis; Ind 1 L. brevis, 5 ppm, Inc Time 12): =
- bacterial growth in inhibition test (Lactobacillus brevis; Ind 1 L. brevis, 5 ppm, Inc Time 24): =
- bacterial growth in inhibition test (Lactobacillus brevis; Ind 1 L. brevis, 5 ppm, Inc Time 36): ±
- bacterial growth in inhibition test (Lactobacillus brevis; Ind 1 L. brevis, 5 ppm, Inc Time 48): +
- bacterial growth in inhibition test (Lactobacillus brevis; Ind 43 L. brevis, 1 ppm, Inc Time 12): =
- bacterial growth in inhibition test (Lactobacillus brevis; Ind 43 L. brevis, 1 ppm, Inc Time 24): +
- bacterial growth in inhibition test (Lactobacillus brevis; Ind 43 L. brevis, 1 ppm, Inc Time 36): +
- bacterial growth in inhibition test (Lactobacillus brevis; Ind 43 L. brevis, 1 ppm, Inc Time 48): +
- bacterial growth in inhibition test (Lactobacillus brevis; Ind 43 L. brevis, 2 ppm, Inc Time 12): =
- bacterial growth in inhibition test (Lactobacillus brevis; Ind 43 L. brevis, 2 ppm, Inc Time 24): +
- bacterial growth in inhibition test (Lactobacillus brevis; Ind 43 L. brevis, 2 ppm, Inc Time 36): +
- bacterial growth in inhibition test (Lactobacillus brevis; Ind 43 L. brevis, 2 ppm, Inc Time 48): +
- bacterial growth in inhibition test (Lactobacillus brevis; Ind 43 L. brevis, 3 ppm, Inc Time 12): =
- bacterial growth in inhibition test (Lactobacillus brevis; Ind 43 L. brevis, 3 ppm, Inc Time 24): +
- bacterial growth in inhibition test (Lactobacillus brevis; Ind 43 L. brevis, 3 ppm, Inc Time 36): +
- bacterial growth in inhibition test (Lactobacillus brevis; Ind 43 L. brevis, 3 ppm, Inc Time 48): +
- bacterial growth in inhibition test (Lactobacillus brevis; Ind 43 L. brevis, 4 ppm, Inc Time 12): =
- bacterial growth in inhibition test (Lactobacillus brevis; Ind 43 L. brevis, 4 ppm, Inc Time 24): ±
- bacterial growth in inhibition test (Lactobacillus brevis; Ind 43 L. brevis, 4 ppm, Inc Time 36): ±
- bacterial growth in inhibition test (Lactobacillus brevis; Ind 43 L. brevis, 4 ppm, Inc Time 48): +
- bacterial growth in inhibition test (Lactobacillus brevis; Ind 43 L. brevis, 5 ppm, Inc Time 12): =
- bacterial growth in inhibition test (Lactobacillus brevis; Ind 43 L. brevis, 5 ppm, Inc Time 24): ±
- bacterial growth in inhibition test (Lactobacillus brevis; Ind 43 L. brevis, 5 ppm, Inc Time 36): ±
- bacterial growth in inhibition test (Lactobacillus brevis; Ind 43 L. brevis, 5 ppm, Inc Time 48): +
- bacterial growth in inhibition test (Lactobacillus fermentum; ATCC L. fermentum, 0.1 ppm, Inc Time 12): =
- bacterial growth in inhibition test (Lactobacillus fermentum; ATCC L. fermentum, 0.1 ppm, Inc Time 24): =
- bacterial growth in inhibition test (Lactobacillus fermentum; ATCC L. fermentum, 0.1 ppm, Inc Time 36): ±
- bacterial growth in inhibition test (Lactobacillus fermentum; ATCC L. fermentum, 0.1 ppm, Inc Time 48): ±
- bacterial growth in inhibition test (Lactobacillus fermentum; ATCC L. fermentum, 0.3 ppm, Inc Time 12): =
- bacterial growth in inhibition test (Lactobacillus fermentum; ATCC L. fermentum, 0.3 ppm, Inc Time 24): =
- bacterial growth in inhibition test (Lactobacillus fermentum; ATCC L. fermentum, 0.3 ppm, Inc Time 36): =
- bacterial growth in inhibition test (Lactobacillus fermentum; ATCC L. fermentum, 0.3 ppm, Inc Time 48): =
- bacterial growth in inhibition test (Lactobacillus fermentum; ATCC L. fermentum, 0.5 ppm, Inc Time 12): =
- bacterial growth in inhibition test (Lactobacillus fermentum; ATCC L. fermentum, 0.5 ppm, Inc Time 24): =
- bacterial growth in inhibition test (Lactobacillus fermentum; ATCC L. fermentum, 0.5 ppm, Inc Time 36): =
- bacterial growth in inhibition test (Lactobacillus fermentum; ATCC L. fermentum, 0.5 ppm, Inc Time 48): =
- bacterial growth in inhibition test (Lactobacillus fermentum; ATCC L. fermentum, 1 ppm, Inc Time 12): =
- bacterial growth in inhibition test (Lactobacillus fermentum; ATCC L. fermentum, 1 ppm, Inc Time 24): =
- bacterial growth in inhibition test (Lactobacillus fermentum; ATCC L. fermentum, 1 ppm, Inc Time 36): =
- bacterial growth in inhibition test (Lactobacillus fermentum; ATCC L. fermentum, 1 ppm, Inc Time 48): =
- bacterial growth in inhibition test (Lactobacillus fermentum; ATCC L. fermentum, 5 ppm, Inc Time 12): =
- bacterial growth in inhibition test (Lactobacillus fermentum; ATCC L. fermentum, 5 ppm, Inc Time 24): =
- bacterial growth in inhibition test (Lactobacillus fermentum; ATCC L. fermentum, 5 ppm, Inc Time 36): =
- bacterial growth in inhibition test (Lactobacillus fermentum; ATCC L. fermentum, 5 ppm, Inc Time 48): =
- bacterial growth in inhibition test (Lactobacillus fermentum; Ind 1 L. fermentum, 0.1 ppm, Inc Time 12): =
- bacterial growth in inhibition test (Lactobacillus fermentum; Ind 1 L. fermentum, 0.1 ppm, Inc Time 24): ±
- bacterial growth in inhibition test (Lactobacillus fermentum; Ind 1 L. fermentum, 0.1 ppm, Inc Time 36): ±
- bacterial growth in inhibition test (Lactobacillus fermentum; Ind 1 L. fermentum, 0.1 ppm, Inc Time 48): ±
- bacterial growth in inhibition test (Lactobacillus fermentum; Ind 1 L. fermentum, 0.3 ppm, Inc Time 12): =
- bacterial growth in inhibition test (Lactobacillus fermentum; Ind 1 L. fermentum, 0.3 ppm, Inc Time 24): =
- bacterial growth in inhibition test (Lactobacillus fermentum; Ind 1 L. fermentum, 0.3 ppm, Inc Time 36): ±
- bacterial growth in inhibition test (Lactobacillus fermentum; Ind 1 L. fermentum, 0.3 ppm, Inc Time 48): ±
- bacterial growth in inhibition test (Lactobacillus fermentum; Ind 1 L. fermentum, 0.5 ppm, Inc Time 12): =
- bacterial growth in inhibition test (Lactobacillus fermentum; Ind 1 L. fermentum, 0.5 ppm, Inc Time 24): =
- bacterial growth in inhibition test (Lactobacillus fermentum; Ind 1 L. fermentum, 0.5 ppm, Inc Time 36): =
- bacterial growth in inhibition test (Lactobacillus fermentum; Ind 1 L. fermentum, 0.5 ppm, Inc Time 48): =
- bacterial growth in inhibition test (Lactobacillus fermentum; Ind 1 L. fermentum, 1.0 ppm, Inc Time 12): =
- bacterial growth in inhibition test (Lactobacillus fermentum; Ind 1 L. fermentum, 1.0 ppm, Inc Time 24): =
- bacterial growth in inhibition test (Lactobacillus fermentum; Ind 1 L. fermentum, 1.0 ppm, Inc Time 36): =
- bacterial growth in inhibition test (Lactobacillus fermentum; Ind 1 L. fermentum, 1.0 ppm, Inc Time 48): =
- bacterial growth in inhibition test (Lactobacillus fermentum; Ind 1 L. fermentum, 5.0 ppm, Inc Time 12): =
- bacterial growth in inhibition test (Lactobacillus fermentum; Ind 1 L. fermentum, 5.0 ppm, Inc Time 24): =
- bacterial growth in inhibition test (Lactobacillus fermentum; Ind 1 L. fermentum, 5.0 ppm, Inc Time 36): =
- bacterial growth in inhibition test (Lactobacillus fermentum; Ind 1 L. fermentum, 5.0 ppm, Inc Time 48): =

Source: patent publication US8828696B2, “Use of Penicillin G Procaine as a selective antimicrobial agent in the production of alcohol by fermentation” (Lallemand Specialites, Inc, priority 2008, dated 2014)
